From ChEMBL document CHEMBL1152962 (Bioorg Med Chem, 2009)

Assays:
[1] = system: Radical scavenging activity
Description: Antioxidant activity assessed as DPPH radical scavenging activity incubated at 40 degC in dark after 30 mins

[2] = molecular target: T1, Tyrosinase (Agaricus bisporus, UniProt O42713)
T1 sequence (O42713 whole entry): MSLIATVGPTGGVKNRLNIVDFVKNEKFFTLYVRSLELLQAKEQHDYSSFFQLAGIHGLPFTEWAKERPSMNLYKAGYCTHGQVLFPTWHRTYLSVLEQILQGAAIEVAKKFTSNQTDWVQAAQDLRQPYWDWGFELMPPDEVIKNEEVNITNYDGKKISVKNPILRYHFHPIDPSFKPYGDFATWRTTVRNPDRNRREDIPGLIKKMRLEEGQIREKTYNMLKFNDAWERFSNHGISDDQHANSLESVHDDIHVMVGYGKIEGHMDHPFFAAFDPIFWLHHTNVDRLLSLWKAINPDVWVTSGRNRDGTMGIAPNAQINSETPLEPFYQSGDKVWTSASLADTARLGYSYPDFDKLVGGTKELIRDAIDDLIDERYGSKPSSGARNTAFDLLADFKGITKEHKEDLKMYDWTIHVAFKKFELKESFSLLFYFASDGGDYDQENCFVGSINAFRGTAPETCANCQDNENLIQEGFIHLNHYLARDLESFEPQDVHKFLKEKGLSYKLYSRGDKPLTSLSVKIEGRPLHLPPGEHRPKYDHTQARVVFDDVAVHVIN
Description: Inhibition of mushroom tyrosinase activity after 90 mins by spectrophotometry

[3] = molecular target: T1, Tyrosinase; remark: listed apart in the source
Description: Inhibition of mushroom tyrosinase activity after 150 mins by spectrophotometry

[4] = molecular target: T1, Tyrosinase; remark: listed apart in the source
Description: Inhibition of mushroom tyrosinase activity after 30 mins by spectrophotometry

[5] = Ratio of Trolox IC50 to compound IC50 for FeCl2-induced lipid peroxidation; format: physicochemical
[6] = Ratio of Trolox IC50 to compound IC50 for ABTS radical scavenging activity
[7] = Ratio of Trolox IC50 to compound IC50 for DPPH radical scavenging activity

SMILES	IC50 [1] [µM]	IC50 [2] [µM]	IC50 [3] [µM]	IC50 [4] [µM]	Ratio IC50 [5]	Ratio IC50 [6]	Ratio IC50 [7]
COc1ccc(CC(=O)c2cc(O)c(C)c(C)c2O)cc1	21.9	–	–	–	–	–	–
COc1ccc(CC(=O)c2ccc(O)cc2O)cc1OC	35.1	209	240	112	–	–	–
O=C(Cc1ccc(O)cc1)c1ccc(O)cc1O	25.2	136	172	178	–	–	–
COc1ccc(C(=O)Cc2ccc(O)cc2)c(O)c1O	25.7	43.1	46.1	43.4	–	–	–
COc1cc(O)c(C(=O)Cc2ccccc2)cc1O	20.3	–	–	–	–	–	–
COc1ccc(CC(=O)c2ccc(O)c(O)c2O)cc1OC	4.34	132	140	229	5	–	–
O=C(Cc1ccccc1)c1c(O)cc(O)cc1O	12.2	–	–	–	–	–	–
COc1ccc(CC(=O)c2c(O)cc(O)cc2O)cc1OC	1.35	–	–	–	–	–	–
COc1ccc(CC(=O)c2cc(O)c(O)cc2O)cc1	21.5	144	197	84.4	–	–	–
COc1ccc(CC(=O)c2c(O)cc(O)cc2O)cc1	10.8	214	230	71	–	–	–
O=C1O[C@H]([C@@H](O)CO)C(O)=C1O [ASCORBIC ACID]	73.7	–	–	–	–	–	–
O=C(Cc1ccc(O)cc1)c1ccc(O)c(O)c1O	5.69	> 300	> 500	> 300	–	10	–
COc1ccc(CC(=O)c2ccc(O)cc2O)cc1 [ONONETIN]	57.4	160	181	78.9	–	–	–
COc1ccc(CC(=O)c2ccc(O)c(O)c2)cc1OC	2.53	–	–	–	–	–	–
O=C(Cc1ccc(O)cc1)c1c(O)cc(O)cc1O	22.8	> 300	261	> 300	–	–	–
Cc1c(C)c2c(c(C)c1O)CCC(C)(C(=O)O)O2 (stereo not given) [TROLOX]	9.2	–	–	–	–	–	–
COc1ccc(CC(=O)c2ccc(O)c(O)c2O)cc1	21.6	203	212	> 300	–	–	–
COc1ccc(CC(=O)c2ccc(O)c(O)c2)cc1	75.9	168	178	> 300	–	–	–
O=C(Cc1ccc(O)cc1)c1cc(O)c(O)cc1O	0.69	–	–	–	–	–	13
